Earlier results, collected in patent publication US20040034042A1, “Preservative composition” (priority 2002, published 2004).

What was measured:
[1] = tested on: Rhizopus, Penicillium and like fungi; details: literature statement; effects called insufficient

In the case of `Cn1c(=O)c2c(ncn2C)n(C)c1=O` [caffeine], the “antibacterial activity to Rhizopus, Penicillium and like fungi” value [1] is listed as “exhibits antibacterial activity” and the “production of aflatoxin by A. parasiticus” value (A. parasiticus) is listed as “inhibits the production of aflatoxin”.
